Data set [1] has as its target T1, FOXM1 (Homo sapiens, UniProt Q08050).
T1 sequence (Q08050 1-763): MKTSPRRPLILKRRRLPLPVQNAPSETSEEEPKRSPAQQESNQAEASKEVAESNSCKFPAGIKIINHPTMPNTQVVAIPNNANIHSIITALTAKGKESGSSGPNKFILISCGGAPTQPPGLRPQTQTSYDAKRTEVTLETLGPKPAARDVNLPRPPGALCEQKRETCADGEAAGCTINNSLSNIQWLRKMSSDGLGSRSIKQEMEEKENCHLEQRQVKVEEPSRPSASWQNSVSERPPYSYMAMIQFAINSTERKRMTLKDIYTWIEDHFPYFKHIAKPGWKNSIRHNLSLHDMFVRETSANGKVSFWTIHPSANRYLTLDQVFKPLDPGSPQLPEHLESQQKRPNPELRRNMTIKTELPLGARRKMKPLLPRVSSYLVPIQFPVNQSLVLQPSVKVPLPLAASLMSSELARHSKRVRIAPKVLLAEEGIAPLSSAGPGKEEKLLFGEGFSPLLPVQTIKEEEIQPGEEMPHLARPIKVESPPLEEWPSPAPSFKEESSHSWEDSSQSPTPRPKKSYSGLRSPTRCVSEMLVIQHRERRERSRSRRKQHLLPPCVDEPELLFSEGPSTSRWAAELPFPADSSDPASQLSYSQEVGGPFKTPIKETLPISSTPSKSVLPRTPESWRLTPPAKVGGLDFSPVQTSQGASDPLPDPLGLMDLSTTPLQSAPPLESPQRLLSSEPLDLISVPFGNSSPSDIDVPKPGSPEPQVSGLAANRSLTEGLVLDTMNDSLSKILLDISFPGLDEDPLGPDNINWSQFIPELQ
As to the kind of experiment: tr-FRET competitive binding assay with Fl-NB-72 probe. On the set-up: we attached a terbium donor to purified, full length FOXM1 through a streptavidin-biotin linker. Particulars: calculated from IC50 values; Supplementary Table 1; read-out: Ki, affinity for binding to FOXM1 protein. The method, then: Competitive binding assays of compound binding to FOXM1 by tr-FRET were done in FRET buffer (20 mM Tris, pH 7.5, 50 mM NaCl, 0.01% NP-40 detergent, 10% glycerol) with 0.3 mg/ml ovalbumin and 0.1 mM butylated hydroxy-anisole added fresh daily. Solutions of the protein, fluorescent probe and compound dilutions were prepared at 3× concentrations, the final dilution taking place as they were mixed together in equal portions on the microtiter plate.
Final concentrations were 10^−5 M to 10^−9 M, with the last point being buffer only, no compound. Fluorescein-NB-72 (Fl-NB- 72) was prepared at 1 mM in DMF and stored at −20 °C. It was diluted into FRET buffer to give 100 nM in the assay. Incubations were done in duplicate on black Molecular Devices 96-well microtiter plates. 5 μl of Fl-NB-72 and 5 μl of the compound dilutions, were mixed together on the plate. To this was added 5 µl biotin-FoxM1 and incubated in the dark at room temperature, for 1 h. […] To correct for background signals, biotin-FOXM1 was omitted, and diffusion-enhanced FRET incubations were done in duplicate on black Molecular Devices 96-well microtiter plates. Five microliter of Fl-NB-72 and 5 μl of the compound solutions were mixed together and then 5 µl of FRET buffer plus SaTb was added, mixed and incubated in the dark at room temperature, for 1 h. The tr-FRET signals measured as above were subtracted as a background from the first incubations that contained biotin-FOXM1. Graphs were prepared using Graph Pad/Prism 4.

The test system of data set [2] is DT22 breast tumor xenografts. Kind of data set: DT22 human breast tumor xenograft growth in NSG mice. It counts as in vivo. The conditions noted are these: for tumor growth: DT22 tumors, NSG mice, s.c., 20 mg/kg every other day for 10 days then 10 mg/kg every other day; for tumor growth in vivo: low doses (2–20 mg/kg) s.c. daily or every other day; for animal body weight / growth of tumor xenografts: low doses s.c.: NB-115 2 or 6 mg/kg daily, NB-63 20 mg/kg daily then 10 mg/kg every other day from day 20. The method, then: For examination of the effects of compounds on breast tumor growth suppression, intact female NOD/SCID-gamma (NSG) mice were used as detailed previously.[39] DT-22 breast cancer cells (1 × 10^6 cells/mouse) were injected s.c. into the right axial mammary gland. Mice received s.c. injection or oral gavage daily or every second or third day as indicated, with vehicle or treatment compound, and tumor volume (length × width^2/2) was monitored over time.
(In general: Xenograft models place foreign cells or tissue in a host animal.)

A short description of data set [3]: Pharmacokinetics in mice after single s.c. or oral dose. It counts as in vivo, female CD1 mice. The conditions noted are these: for AUC / Cmax / half-life: female, CD1, mouse, single dose, plasma.
Method: The pharmacokinetics of compounds were monitored after single dose administration into female CD1 mice (7–9 weeks of age) via s.c. injection or oral gavage, as described.[39] For s.c. injection, each compound was dissolved in DMSO and then mixed with corn oil for a total injection volume of 100 μL (10% DSMO + 90% corn oil) per mouse. For oral gavage, compounds were administered in a 200 µL formulation of 9/0.5/0.5/90 parts of PEG400/Tween80/Povidone/0.5% Carboxymethylcellulose in DI water. […] Compounds were quantified by LC-MS/MS at the University of Illinois Metabolomics Core Facility. The data were fitted to a non-compartment model.
Data set [4] relates to DT22 cells and MCF7 cells. As to the kind of experiment: Cell proliferation in DT22 and MCF7 cells. It counts as cell-based, human. Particulars: 3 days. The method, then: WST-1 assay (Roche, Basel, Switzerland) was used to quantify cell viability as described.[38] […] All assays were performed in triplicate and analyzed using Graph Pad Prism 8.0.
For data set [5], the system named is FOXM1 target gene expression in MCF7 cells. Kind of data set: FOXM1 target gene expression by qRT-PCR. Particulars: MCF7, 24 h, compound at its IC50 for proliferation. It is filed as cell-based, human. The method, then:
Total RNA was isolated using TRIzol (Invitrogen) and reverse transcribed using […] reverse transcriptase (New England BioLabs). Real-time PCR was performed using SYBRgreen PCR Master Mix (Quantabio) as described.[15] Relative mRNA levels of genes were normalized to the housekeeping gene 36B4, and fold-change calculated relative to the vehicle treated samples. Results are the average ± SD from at least two independent experiments carried out in triplicate. Primer sequences for the genes studied were obtained from the Harvard Primer Bank. Sequences are available on their website.

Data set [6] deals with tamoxifen-resistant MCF7 breast cancer cells. As to the kind of experiment: Proliferation of tamoxifen-resistant MCF7 cells. It is filed as cell-based, human. Particulars: 6 days, cell numbers. The method, then: resistant MCF7 cells. Cells were treated with NB-73 or trans-hydroxytamoxifen (OH-
Tam) for 6 days and cell numbers were monitored. Values are mean ± SD of three
(1 picture or pasted object on this page, not shown here)

Data on nine compounds can be found in paper PMC6884575, “Suppression of FOXM1 activities and breast cancer growth in vitro and in vivo by a new class of compounds” (NPJ Breast Cancer, 2019).

`C[N+]1(CCCCCCOc2ccc(C(=C3C4CC5CC(C4)CC3C5)c3ccc(OCCCCCC[N+]4(C)CCCC4)cc3)cc2)CCCC1` [NB-68]: the Ki in data set [1] is 51 nM. Besides, in data set [2], the tumor growth entry is “greatly suppress tumor growth” and the “tumor growth in vivo” value is “greatly suppress tumor growth”. In addition, in data set [3] (after oral administration), the “blood levels of compound” value is listed as “only very low levels”. Moreover, the “blood levels of compound” value in data set [3] (after s.c. injection) is given as “very high blood levels”. For the same compound, in data set [3] (oral, 60 mg/kg), the AUC was 0.29 µM·h, the highest level (Cmax) was 71 nM and the half-life was 6.2 h. Moreover, in data set [3] (sc, 60 mg/kg), the AUC amounted to 127 µM·h, the highest level (Cmax) was 7120 nM and the half-life is 23.7 h. The “relative potency in suppressing cell proliferation” value in data set [4] was “potencies very similar to those of their parent amine compounds”.
In data set [3] (oral, 60 mg/kg), `c1cc(C(c2ccc(OCCCCCCN3CCCCC3)cc2)=C2[C@H]3C[C@@H]4C[C@@H](C[C@H]2C4)C3)ccc1OCCCCCCN1CCCCC1` [NB-70] had an AUC of 8.32 µM·h, a Cmax of 220 nM and a half-life of 51.2 h. For the same compound, in data set [3] (sc, 60 mg/kg), the AUC was determined as 10.2 µM·h, the Cmax worked out at 270 nM and the half-life is 222 h.
As for `C[N+]1(CCCCCCOc2ccc(C(=C3C4CC5CC(C4)CC3C5)c3ccc(OCCCCCC[N+]4(C)CCCCC4)cc3)cc2)CCCCC1` [NB-71], in data set [2], the tumor growth entry is reported as “greatly suppress tumor growth” and the “tumor growth in vivo” value is “greatly suppress tumor growth”. Besides, the “blood levels of compound” value in data set [3] (after oral administration) is listed as “only very low levels”. Moreover, the “blood levels of compound” value in data set [3] (after s.c. injection) is listed as “very high blood levels”. In data set [3] (oral, 60 mg/kg), the AUC turned out to be 0.08 µM·h and the Cmax came to 30 nM. Moreover, in data set [3] (sc, 60 mg/kg), the AUC stood at 198 µM·h, the Cmax turned out to be 9520 nM and the half-life was 33.2 h.
With `c1cc(C(=C2C3CC4CC(C3)CC2C4)c2ccc(OCCCCCCN3CCCC3)cc2)ccc1OCCCCCCN1CCCC1` [NB-65], the Ki in data set [1] was 190 nM. In data set [3] (oral, 60 mg/kg), this compound returned an AUC of 3.23 µM·h and a Cmax of 80 nM. In data set [3] (sc, 60 mg/kg), this compound showed an AUC of 14.8 µM·h and a Cmax of 580 nM.
In data set [3] (oral, 60 mg/kg), `c1cc(C(=C2C3CC4CC(C3)CC2C4)c2ccc(OCCCCCCN3CCCCCC3)cc2)ccc1OCCCCCCN1CCCCCC1` [NB-72] showed an AUC of 11.3 µM·h, a Cmax of 320 nM and a half-life of 60.6 h. In data set [3] (sc, 60 mg/kg), this compound gave an exposure (AUC) of 15.9 µM·h, a Cmax of 370 nM and a half-life of 302 h.
For `CC[N+](C)(CC)CCCCCCOc1ccc(C(=C2C3CC4CC(C3)CC2C4)c2ccc(OCCCCCC[N+](C)(CC)CC)cc2)cc1` [NB-115], in data set [2], the “tumor growth in vivo” value is given as “greatly suppress tumor growth”, the animal body weight result is “little impact on animal body weight” and the “growth of tumor xenografts” value is recorded as “effective in suppressing the growth of tumor xenografts”. The peak level in data set [3] (oral, 40 mg/kg) (Cmax) was 100 nM. In data set [3] (sc, 40 mg/kg), this compound had an AUC of 746 µM·h, a Cmax of 34700 nM and a half-life of 38.6 h. For the same compound, in data set [5], the “expression of ATF3, a gene suppressed by FOXM1” value is “increased expression of ATF3” and the “expression of FOXM1 stimulated target genes (FOXM1C, AURKB, CCNB1, PLK1)” value is on record as “significantly reduced the expression”.
Regarding `CCN(CC)CCCCCCOc1ccc(C(c2ccc(OCCCCCCN(CC)CC)cc2)=C2[C@H]3C[C@@H]4C[C@@H](C[C@H]2C4)C3)cc1` [NB-51], the Ki in data set [1] was 130 nM. In data set [3] (oral, 40 mg/kg), the AUC was found to be 1.81 µM·h, the concentration peaked (Cmax) at 110 nM and the half-life was 20.1 h. In data set [3] (sc, 20 mg/kg), the AUC came out at 4.73 µM·h, the Cmax came out at 180 nM and the half-life is 61.8 h.
As to `C[N+]1(CCCCCCOc2ccc(C(c3ccc(Cl)cc3)=C3C4C[C@H]5C[C@@H](C4)C[C@H]3C5)cc2)CCCC1` [NB-63], in data set [2], the “tumor growth in vivo” value is “greatly suppress tumor growth”, the animal body weight result is given as “little impact on animal body weight” and the “growth of tumor xenografts” value is on record as “effective in suppressing the growth of tumor xenografts”. In addition, the “blood levels of compound” value in data set [3] (after oral administration) is “only very low levels”. Besides, the “blood levels of compound” value in data set [3] (after s.c. injection) is recorded as “very high blood levels”. In data set [3] (oral, 40 mg/kg), this compound gave an AUC of 1.67 µM·h, a Cmax of 400 nM and a half-life of 5.8 h. In data set [3] (sc, 40 mg/kg), this compound gave an AUC of 158 µM·h, a maximum concentration (Cmax) of 5010 nM and a half-life of 31.5 h. In data set [4], the “relative potency in suppressing cell proliferation” value is “potencies very similar to those of their parent amine compounds”.
On to `CC/C(=C(\c1ccc(O)cc1)c1ccc(OCCN(C)C)cc1)c1ccccc1` [trans-hydroxytamoxifen, reference compound], for which, in data set [6], the “proliferation of tamoxifen-resistant MCF7 cells” value is on record as “weakly stimulated”.

As usually defined, the Ki is a dissociation constant, usually derived from enzyme kinetics or from competition with a known ligand. In general, AUC refers to concentration integrated over time. Low readings indicate low exposure, high ones high exposure. Broadly, the Cmax is the highest concentration seen after dosing. The half-life is the time in which the quantity being followed falls by half. The low end stands for fast loss, the high end for slow loss.
